In patent US6436705B1, “Shape stabilized erythrocytes” (The United States of America as represented by the …, priority 1997, dated 2002):

Assays:
erythrocytes [1] = test: Assay of capacity for shape change (LPC-induced echinocytosis, microscopy); type: cell-based, human
Method: Microscopy. Cross-linked and reversed cells were prepared as described in the section on erythrocyte preparation, etc., with the addition of 0.5% bovine serum albumin to the solution prior microscopic examination. Cells were examined using an Nikon Optiphot, equipped with PlanApo 20×objective.
Assay of capacity for shape change. To induce echinocytosis ([…]), erythrocytes were incubated with 10μg/ml LPC for 2 min at room temperature. Erythrocytes were pretreated with 5 mM DTBP for 1 h and then subjected to 10 μg/ml LPC treatment. Microscopic examination of cell morphology was performed. Erythrocytes were pretreated with 5 mM DTBP for 1 h, reversed with 10 mM DTT for 20 min and then subjected to 10 μg/ml LPC treatment. Microscopic examination followed. Erythrocyte response to LPC of normal, cross-linked and reversed cells was compared.

Red cells = test: Oxygen carrying ability (oxygen content by CO-oximeter); type: cell-based, human; conditions: cells subjected to CO-treatment
Method: A semi-quantitative measure of oxygen carrying ability by DTBP cross-linked and reversed cells was performed. Red cells cross linked with 5 mM DTBP for different incubation times and cells reversed with DTT (see above) were processed through a membrane oxygenator to replace CO with oxygen. Oxygen saturation of the cells was measured using a CO-oximeter. After the oxygenation, cells were subjected to deoxygenation under a stream of nitrogen for 30 min. Percentage oxygen was measured again by the CO-oximeter. Oxygen binding and releasing properties for cross-linked, reversed and normal cells were compared.
We measured oxygen content (Vol%O2) of cells subjected to cross-linking and reversal with a CO-oximeter 282. […] CO-treated and cross-linked cells with 5 mM DTBP for 5 h, which underwent re-oxygenation in the membrane oxygenator had oxygen content of 7.3 Vol%O2.

erythrocytes [2] = test: Methemoglobin formation during freeze-drying; type: cell-based; conditions: CO-treated erythrocytes, FIG. 1
Source text: Freeze-drying of hemoglobin leads to the formation of significant amount of methemoglobin. Circular dichroism studies for samples of hemoglobin freeze-dried with or without protectant have shown that the absence of a protector weakly influences the confirmation in the vicinity of the heme and increases the helicity of protein chains (Thirion C et al., 1983). Freeze-drying hemoglobin without denaturing and oxidizing it was made possible by the use of carbohydrates (Labrude PB et al., 1980). […] Since red cell membrane is non-permeable to disaccharides and only lowly permeable to monosaccharides, this limits the use of carbohydrates as protectants for intracellular hemoglobin. We explored CO-treatment as a means to prevent methemoglobin formation during freeze-drying. CO-treatment stabilizes hemoglobin in the CO-hemoglobin form by liganding CO. […] To reverse the CO-treatment, a hollow fiber oxygenator can be used.

Red blood cells [3] = test: Deformability measurements with an ektacytometer (Shear-scan, Osmo-scan); type: cell-based, human; conditions: DTBP cross-linked cells after treatment with DTT; Osmo-scan
Method: Red blood cells were cross-linked with 5 mM DTBP for 1 h. Cross-linking was reversed with 10 mM DTT for 20 min. Deformability measurements were made with fresh untreated, cross-linked, and reversed cells as well as with untreated packed cells stored in CPDA-1 for 6 weeks at 4° C. The effects of cross-linking and reversal on red blood cell deformability were measured with an ektacytometer (Technicon).
The ektacytometer is a laser diffraction viscometer described in detail by Bessiss and Mohandas. Intact red blood cells and ghosts suspended in solution produce a diffuse circular laser diffraction pattern. The instrument takes advantage of the fact that when a shear force is applied to the solution crossing the beam the cells align in the direction of shear and begin deforming into uniformly oriented ellipsoids. The laser diffraction pattern then takes on an ellipsoidal shape oriented 90° from the major elliptical cell axis, with the ratio of the long axis to the short axis length determined by the degree of cell deformation. A signal proportional to mean cellular ellipticity is derived from photometric measurement of this laser diffraction pattern in the two axis directions and is designated the deformability index (DI).
Two types of deformability profiles were generated in the present experiments. […] Shear-scans were run with 40 μl of concentrated cell suspension (80% hematocrit) mixed with 3.0 ml of 3.1% (w/v) polyvinylpyrrolidone (P, av-MW 360 kD) solution containing 138 mM NaCl, 6.34 mM Na2HPO4, 2 mM NaH2PO4, and 0.04% (w/v) NaN3 with pH=7.35±0.05, osmolality=290 mOsmol/kg (by freezing point depression), and viscosity=20 cp (assumed). Osmo-scans were run by continuous addition of this suspension medium containing 100 μl of cells to a PVP solution with a graded salt concentration. Salt gradients were made by addition of high salt PVP solution with 386 mM NaCI (osmolality=750 mOsmol/kg) to a low salt PVP solution with 2.5 mM NaCl (osmolality=40 mOsmol/kg). Conductance measurements of the cell suspension in the viscometer provided an indirect measure of osmolality, which was calculated from a standard calibration curve.
Data was recorded onto a computer, and curves were fitted and plotted using custom routines in Matlab (The Math Works Inc, Natick, Mass.). Shear scans were fitted with a polynomial of degree 6 from which the maximum DI (DImax) was calculated. Osmo-scans were fitted with a running average, and DImax was calculated within the range of 180-240 mOsmol/Kg, along with the osmolality corresponding to 1/2DImax at hypertonic salt concentrations (0′), where DI decreases with increasing intracellular viscosity secondary to cell shrinkage and increased hemoglobin concentration (see Mohandas et al., J. Clin. Invest. 66563-73(1980)). The osmolality corresponding to the minimum DI (Omin) at hypotonic salt concentrations, where DI falls due to cell swelling, was also calculated. The height of the small DI peak thought to be associated with the sudden availability of excess membrane for deformation as intracellular ions and water are lost in the lower range of hypotonic salt (63-125 mOsmol/Kg) concentrations was also recorded (see Clark et al., Blood 61 899-910 (1983)).

Human erythrocytes [4] = test: Osmotic fragility test; type: cell-based; conditions: cells treated for 1 h with 5 mM DTBP, reversed with DTT
Method: An osmotic fragility test (a common clinical test) was performed on erythrocytes cross-linked with 5 mM DTBP for different incubation times and on erythrocytes cross-linked and reversed with DTT. Briefly, 1 ml of the erythrocyte suspension was taken out at regular incubation times, centrifuged, and DTBP or DTT was removed (Eppendorf centrifuge for 3 min at 3000×g). 1 ml of solutions containing buffered sodium sodium chloride at different concentrations (from 1% to 0.1% NaCl in phosphate buffer) were added to the packed cells. After 30 min the samples were centrifugated (Eppendorf centrifuge for 3 min at 3000×g), and the supernatants were processed for hemolysis measurements.

Human erythrocytes [5] = test: 'gravity-driven' filtration assay of erythrocyte deformability (5 μm pore filter); type: cell-based
Method: The deformability of erythrocytes after crosslinking with diamide and its reversal with dithioerythritol is measured using a “gravity-driven” filtration assay. Diluted erythrocyte suspensions are passed through a 5 μm pore filter The relative filtration index is determined using the following expression: [formula] […] Human erythrocytes subjected to crosslinking with diamide and subsequent reversal of the crosslinking dithioeiythritol were passed through a 5 μm pore filter. Relative filtration index was determined.

Red blood cells [6] = test: Metabolic viability: ATP content of red blood cells over time; type: cell-based, human; conditions: cross-linked cells treated with 10 mM DTT prior to initial glucose exposure
Method: The metabolic viability of cross-linked cells was assayed by monitoring the production and depletion of ATP over time. DTBP cells were cross-linked in 5 mM DTBP 150 mM glucose for 5 hours at 4° C. The cells were then washed 3 times and incubated in 150 mM glucose for an additional 19 hrs. After washing to remove the glucose the cells were incubated at 4° C. in PBS for 72 hrs before being returned to 150 mM glucose for the final 24 hr incubation. At each time point cells were removed, washed, and spectrophotometrically assayed for ATP as described in the text. The glucose controls were cells treated in the same manor but without crosslinking, and the control cells are cells without exposure to glucose.

Human erythrocytes [7] = test: cells; type: cell-based; conditions: Homo sapiens, Erythrocyte, read-out: hemolysis in distilled water after cross-linking reversal
Method: Packed human erythrocytes from healthy donors were obtained from the National Naval Medical Center (Bethesda, Md.) within 48 h of donation and used within 7 days. Packed erythrocytes were washed twice in phosphate buffer solution (PBS) then re-suspended in PBS (1 vol PBS:1 vol packed cells). The erythrocyte suspension (100 ml) was placed on ice and carbon monoxide (CO) was bubbled through it for 2 hours. Saturation with CO (100%) was achieved under these conditions as detected with a CO-oximeter. Erythrocytes were packed and cross-linked with DTBP at 4° C. for different incubation times (from 1 to 24 h; 9 vol cross-linking solution: 1 vol packed cells). The cross-linking solution was prepared by dissolving DTBP in PBS (pH 7.8). After incubation DTBP was removed by repeated washing of the red cells in PBS (IEC Centra centrifuge for 10 min at 1008×g). Reversal of the cross-linking was carried out at room temperature with the reducing agent dithioerythritol (DTT) at a concentration of 10 mM in PBS (9 vol reducing solution: 1 vol packed cells) for 20 min or as indicated in the figure legends. DTT was removed by repeated washing of the red cells in PBS (IEC Centra centrifuge for 10 min at 1008×g). CO-treatment was reversed at room temperature using a hollow fiber membrane oxygenator model Capiox 308. Erythrocytes were processed through the oxygenator for 1 h. Saturation with oxygen (92%) was reached as detected with a CO-oximeter.
Erythrocytes were cross-linked with DTBP at different concentrations for different incubation times. 1 ml of the erythrocyte suspension was taken out at regular incubation times centrifuged and DTBP was removed (Eppendorf centrifuge for 3 min at 3000×g). Distilled water (1 ml) was added to the remaining packed cells. After 30 min the cells were again centrifugated (Eppendorf centrifuge for 3 min at 3000×g), and the supernatants were processed for hemolysis measurements. For determination of hemolysis the cyanmethemoglobin method was applied (see Brown in “Hematology: principles and procedures” pp. 29-31 (Lea and Febiger, eds., 1984)). Absorbance was measured at 540 nm and percent hemolysis was determined by Equation (1), supra, where the control sample was lysed in distilled water.
Erythrocyte stability in distilled water was tested after crosslinking reversal as well. Red blood cells were first cross-linked with DTBP then treated with DTT at different concentrations (from 1 to 10 mM) for different incubation times (from 5 to 20 min). Hemolysis in distilled water was measured as described above.

Human erythrocytes [8] = test: Freeze-thaw damage (percentage hemolysis after freezing at −20° C.); type: cell-based; conditions: 5 mM diamide for 1 h at room temperature; 1 h freezing at −20° C.; FIG. 2
Method: Erythrocytes pre-treated with diamide were frozen immediately or after 3 h of incubation in the freezing medium (glucose 200 mM, raffinose 139 mM, sodium citrate 33 mM, sodium phosphate dibasic 12 mM, sodium phosphate monobasic 2.9 mM, ammonium phosphate 40 mM, adenine 2 mM) to allow loading with glucose. Freezing was carried out at −20° C. in a freezer for […] and samples were thawed in a water bath at room temperature.
After completion of the freeze-thaw cycle samples were centrifugated. After centrifugation (Eppendorfcentrifuge for 3 min at 3000×g) the supernatants were processed for hemolysis measurements. For determination of hemolysis the Cyanmethemoglobin method was applied. Absorption was read at 540 nm using a Hewlett Packard spectrophotometer. Percentage hemolysis was determined by Equation 1, supra. Percentage hemolysis was taken as a measure for freeze-thaw damage.
Human erytirocytes were pre-treated at room temperature with 5 mM diamide for 1 h. After the incubation was completed the unreacted reagent was removed by a washing procedure and the cells were re-suspended in a freezing medium. Erythrocytes were frozen immediately or after three hours of incubation in the freezing medium to allow loading with glucose. Percentage hemolysis represents the freeze-thaw damage after 1 h freezing at −20° C. in a freezer.

In the case of lysolecithin [LPC], the “shape change of normal red blood cells” value (erythrocytes [1]; 10 μg/ml LPC, normal cells) is reported as “shape change from discocytes to echinocytes”.

In the case of [C-]#[O+] [CO, carbon monoxide], the oxygen content (Red cells) is reported as 0.7 Vol%O2 and the “methemoglobin formation during freeze-drying” value (erythrocytes [2]) is reported as “prevents hemoglobin oxidation to methemoglobin”.

With O[C@H](CS)[C@@H](O)CS [DTT, dithioerythritol] the “DImax and O′ after reversal” value (Red blood cells [3]) was “restored these indices towards normal values”, the “Omin (osmolality corresponding to the minimum DI)” value (Red blood cells [3]) was 128 mOsmol/Kg and the “reversal of the effect of DTBP on osmotic fragility” value (Human erythrocytes [4]) was “complete reversal”. The Relative filtration index (Human erythrocytes [5]; diamide-crosslinked cells, reversal of the cross-linking with 5 mM dithioerythritol) was 0.83 ± 0.02, the Relative filtration index (Human erythrocytes [5]; diamide-crosslinked cells, reversal of the cross-linking with 10 mM dithioerythritol) was 0.90 ± 0.01 and the “amount of ATP present after reversal” value (Red blood cells [6]) was “did not change the amount of ATP present”. The hemolysis at 10000 µM (Human erythrocytes [7]) was 100% and the “reversal of shape stabilizing action of DTBP” value (erythrocytes [1]; 5 mM DTBP 1 h, 10 mM DTT 20 min, then 10 μg/ml LPC) was “completely reversible”.

For CN(C)C(=O)/N=N/C(=O)N(C)C [diamide], the “Percentage hemolysis (freeze-thaw damage)” value (Human erythrocytes [8]) was “cryoprotection of erythrocytes” and the Relative filtration index (Human erythrocytes [5]; Crosslinking with 5 mM diamide, 5 μm pore filter) was 0.71 ± 0.03.
